Results reported in US20110020366A1, “USE OF BENZOPHENONE DERIVATIVE OR SALT THEREOF AND TNF ALPHA INHIBITOR IN COMBINATION AND PHARMACEUTICAL COMPOSITION CONTAINING THE DERIVATIVE OR SALT THEREOF AND THE INHIBITOR” (TOYAMA CHEMICAL CO., LTD., priority 2008, published 2011).

System: Mouse Type II Collagen-Induced Arthritis
Experiment: Mouse type II collagen-induced arthritis, arthritis score / inhibition rate
Assay type: in vivo
Details: compound A 30 mg/kg orally once a day for 10 days; DBA/1 J mice; day following the final administration
Description: Eight-week-old male DBA/1 J mice (9 or 10 mice per group; Charles River Laboratories Japan) were used. A 2 mg/mL bovine type II collagen dissolved in a 0.1 mol/L acetic acid solution (Koken Co., Ltd.) was mixed with an equal volume of Freund's complete adjuvant (BD Diagnostic Systems) to prepare an emulsion. The emulsion (0.2 mL) was intradermally injected into the hip of each mouse. Twenty-one days after the primary immunization, the same treatment was carried out (secondary sensitization), so that type II collagen arthritis was induced.
Compound A was dissolved in a 2-fold molar amount of sodium hydroxide solution, and a 3-fold weight of polyvinylpyrrolidone was then added to the solution, followed by dilution with distilled water. The concentration of compound A in a compound A (30 mg/kg)-dosing solution was adjusted to be 3 mg/mL. The concentration of compound A in compound A (3 mg/kg)-dosing solution for combined administration was adjusted to be 0.3 mg/mL. Each dosing solution was orally administered to the mice.
The anti-TNFα antibody was dissolved in phosphate buffered saline. The concentration of the anti-TNFα antibody in the anti-TNFα antibody (250 μg/mouse)-dosing solution was adjusted to be 1.25 mg/mL. […]
The knuckle portion and the articulations of wrist and tarsus portions of the four paws of each mouse were evaluated using the following 4 scores. […]

O=C(O)CCc1cc(C(=O)c2ccc(OC3CCCC3)cc2O)ccc1OCc1ccc2c(O)noc2c1 [Compound A, 3-(5-(4-(cyclopentyloxy)-2-hydroxybenzoyl)-2-((3-hydroxy-1,2-benzisoxazol-6-yl)methoxy)phenyl)propionic acid]
Arthritis inhibition rate (%): 23%
